Reference: paper PMC9249674, “A small-molecule Skp1 inhibitor elicits cell death by p53-dependent mechanism” (iScience, 2022)

Experiments:
[1] = target: T1, ΔSkp1^1−140 (Homo sapiens, UniProt P63208); assay: SPRi assay; assay type: binding
T1 construct: pETDuet-Skp1(1-140); His6; made in house; host or cells: Escherichia coli BL21 (DE3)
Method: Freshly deposited gold coated standard SPRi chips/slides (Plexera, LLC) were cleaned, and compound(s) at 10 mM concentration in 100% DMSO were spotted on the chips using a micropipette. After this, the slides were left for complete evaporation of DMSO (under vacuum) at room temperature for 2 hrs. […] The slides were subsequently washed with DMSO, ethanol, and finally with distilled water for 15 minutes (ultrasonically), respectively, to remove non-covalently bound compounds. After drying with nitrogen, the slides were assembled with flow cell and then mounted on SPRi instrument for measurement, or stored at 4°C to be used for later experiments.
All the experiments were carried out using the PlexArray® HT system (Plexera, LLC), which is based on surface plasmon resonance imaging. Oval regions of interests (ROIs) were set as 9 pixels × 7 pixels area in imaging area. ROIs of vehicle (DMSO) were used as controls for measurement of specific signals. […] A 1:3 mixture of glycine. HCL (pH 4.2) and 0.5% (v/v) SDS, respectively, was used to regenerate the surface and remove bound proteins from the small molecules enabling the sensor chip to be reused for additional analyte injections.
The Tris buffer (10 mM Tris-HCl pH 8.0, 100 mM NaCl), without any reducing agent, was used as both analyte and running buffer. […]

[2] = tested on: panel of cell lines derived from hematologic and solid tumors; assay: Cell viability, panel of cell lines; assay type: cell-based; conditions: all the lines tested with complete cell killing; read-out: EC50 values across the panel
Method: For cell viability, cells were seeded in 384 opaque-walled plates with clear bottoms at 300–500 cells per well (optimum density for growth) in a total volume of 20 μL of media. The media was according to culture conditions of each individual cell line (mentioned above). After 12 hrs, compounds were added in a total volume of 5 μL of media (two-fold diluted) to each well with final concentrations from 5 nM to 30 μM. The measurements were conducted 48 hrs after seeding of the cells. Then, 25 μL of Cell-Titer GLO reagent (Promega) was added, and luminescence was measured on an EnSpire multimode plate reader (PerkinElmer), according to the manufacturer’s instructions. The estimated in vitro half-maximal inhibitory concentration (EC50) values were calculated using GraphPad Prism® v6.0 (San Diego, CA) software. The cell viability for A549 cells was also performed for 72- and 96-hrs by using the same experimental conditions as described above.

[3] = target: T2, Skp1 interaction with Skp2 (Homo sapiens, UniProt P63208); assay: Cell-based FRET assay in HEK293 cells; conditions: 4 hrs, increasing concentrations
T2 construct: host or cells: HEK293

[4] = tested on: A549 cells; assay: Caspase-Glo 3/7 activity; assay type: cell-based, human; conditions: dose- and time-dependent treatment
Method: (§1) The activities of caspase-3/7, −8 and −9 were measured using Caspase-Glo® 3/7,8, and 9 assay kits (Promega, Madison, WI, USA) according to the manufacturer’s protocol. Briefly, the cells were plated over-night in a white 384 well microplate, and then treated as indicated with Z0933M. After treatment, 25 μL of each caspase substrate was added and incubated at room temperature for 30 min. Upon activation of caspase in the apoptotic cells, the substrate will give a luminescence signal after cleavage of the aminoluciferin-labelled synthetic tetrapeptide. Luminescent signals were detected using an EnSpire multimode plate reader (PerkinElmer). For inhibitor interventions and Skp1 overexpression, the experiments were performed in 96 well format.

[5] = tested on: H358 cells; assay: Caspase-Glo 3/7 activity; assay type: cell-based; conditions: dose- and time-dependent treatment
Method: as §1

T2 sequence (P63208 whole entry): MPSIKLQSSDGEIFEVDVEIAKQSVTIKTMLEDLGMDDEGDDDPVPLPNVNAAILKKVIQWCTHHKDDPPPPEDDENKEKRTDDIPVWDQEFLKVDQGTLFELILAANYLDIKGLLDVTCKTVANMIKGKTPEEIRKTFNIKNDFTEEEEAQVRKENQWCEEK
T1 sequence (P63208 1-140, stated change not applied): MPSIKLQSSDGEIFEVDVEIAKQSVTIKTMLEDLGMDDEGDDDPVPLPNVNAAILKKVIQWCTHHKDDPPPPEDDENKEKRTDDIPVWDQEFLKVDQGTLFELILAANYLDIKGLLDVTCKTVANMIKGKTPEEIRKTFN

Structure (SMILES): Nc1ccc(-c2nc3ccccc3c3[nH]c4ccccc4c23)cc1 [Z0933M]
- Kd [1]: 40.4 ± 8.2 nM
- EC50 [2]: 250 to 4000 nM
- inhibition of Skp1-Skp2 interaction (FRET ratio) [3]: significant inhibition
- caspase 3/7 activity [4]: dose- and time-dependently induced caspase 3/7 activity
- caspase 3/7 activity [5]: failed to do so
